Test results as given in patent US10280169B2, “Biaryl bruton's tyrosine kinase inhibitors” (BIOGEN MA INC., priority 2013, dated 2019).

The molecules below were run against T1, BTK (Homo sapiens, UniProt Q06187) (assay: In vitro BTK kinase assay: BTK-POLYGAT-LS assay). Details: 10 uM ATP, read-out: IC50 (10 uMATP).
T1 construct: purchased Upstate 14-552
T1 sequence (Q06187 whole entry): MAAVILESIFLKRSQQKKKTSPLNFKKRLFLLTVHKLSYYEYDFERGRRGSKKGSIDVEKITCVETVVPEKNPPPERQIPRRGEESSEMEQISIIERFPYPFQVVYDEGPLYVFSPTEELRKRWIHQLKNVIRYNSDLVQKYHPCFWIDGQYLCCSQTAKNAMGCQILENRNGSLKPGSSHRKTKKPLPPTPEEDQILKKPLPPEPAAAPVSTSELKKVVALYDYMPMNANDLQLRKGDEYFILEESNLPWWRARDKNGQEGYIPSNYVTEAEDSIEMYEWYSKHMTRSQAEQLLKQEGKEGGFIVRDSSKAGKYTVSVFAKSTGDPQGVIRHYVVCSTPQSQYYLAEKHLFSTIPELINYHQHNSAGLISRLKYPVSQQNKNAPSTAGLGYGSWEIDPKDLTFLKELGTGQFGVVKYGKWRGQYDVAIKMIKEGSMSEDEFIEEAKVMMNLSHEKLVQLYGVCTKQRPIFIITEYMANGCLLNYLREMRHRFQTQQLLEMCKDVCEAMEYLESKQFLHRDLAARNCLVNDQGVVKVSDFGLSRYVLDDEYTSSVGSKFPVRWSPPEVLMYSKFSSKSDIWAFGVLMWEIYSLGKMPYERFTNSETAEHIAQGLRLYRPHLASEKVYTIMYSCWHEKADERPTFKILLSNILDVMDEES
Type: biochemical
Work on `CCc1cc(-c2ncnc3[nH]ccc23)ccc1CNC(=O)c1ccc(C(C)(C)C)cn1` [Example I-11, 5-(tert-butyl)-N-(2-ethyl-4-(7H-pyrrolo[2,3-d]pyrimidin-4-yl)benzyl)picolinamide] yielded an IC50 of less than 10 nM.
`C[C@@H](NC(=O)c1nc2c(s1)CCCC2)c1ccc(-c2ncnc3[nH]ccc23)cc1` [Example I-74, (R)—N-(1-(4-(7H-pyrrolo[2,3-d]pyrimidin-4-yl)phenyl)ethyl)-4,5,6,7-tetrahydrobenzo[d]thiazole-2-carboxamide] showed an IC50 of 100 to 999 nM.
`O=C(N[C@@H]1CCCc2cc(-c3ncnc4[nH]ncc34)ccc21)c1cc2c(s1)CCCC2` [Example I-86, (R)—N-(6-(1H-Pyrazolo[3,4-d]pyrimidin-4-yl)-1,2,3,4-tetrahydronaphthalen-1-yl)-4,5,6,7-tetrahydrobenzo[b]thiophene-2-carboxamide] was tested, and the IC50 was 10 to 99 nM.
`O=C(NCc1ccc(-c2ncnc3[nH]ccc23)cc1)N1Cc2ccccc2C1` [Example I-69, N-(4-(7H-pyrrolo[2,3-d]pyrimidin-4-yl)benzyl)isoindoline-2-carboxamide] gave an IC50 of 10 to 99 nM.
With `Cn1cc(-c2cc3c(-c4ccc5c(c4)CCCC5NC(=O)c4cnn(C(C)(C)C)c4)ncnc3[nH]2)cn1` (stereo not shown) [Example I-156, 1-(tert-butyl)-N-(6-(6-(1-methyl-1H-pyrazol-4-yl)-7H-pyrrolo[2,3-d]pyrimidin-4-yl)-1,2,3,4-tetrahydronaphthalen-1-yl)-1H-pyrazole-4-carboxamide] the IC50 was less than 10 nM.
In the case of `CC(C)(C)c1ccc(C(=O)NCc2ccc(-c3ncnc4[nH]ccc34)cc2C(F)(F)F)cc1` [Example I-3, N-(4-(7H-pyrrolo[2,3-d]pyrimidin-4-yl)-2-(trifluoromethyl)benzyl)-4-(tert-butyl)benzamide], the IC50 is reported as 10 to 99 nM.
Work on `Cn1cc(-c2cc3c(-c4ccc5c(c4)CCCC5NC(=O)N4CC(OC(C)(C)C)C4)ncnc3[nH]2)cn1` (stereo not shown) [Example I-159, 3-(tert-butoxy)-N-(6-(6-(1-methyl-1H-pyrazol-4-yl)-7H-pyrrolo[2,3-d]pyrimidin-4-yl)-1,2,3,4-tetrahydronaphthalen-1-yl)azetidine-1-carboxamide] yielded an IC50 of less than 10 nM.
`Cc1cc(-c2ccnc3[nH]ncc23)cnc1CNC(=O)c1cc2c(s1)CCCC2` [Example I-139, N-((3-methyl-5-(1H-pyrazolo[3,4-b]pyridin-4-yl)pyridin-2-yl)methyl)-4,5,6,7-tetrahydrobenzo[b]thiophene-2-carboxamide] showed an IC50 of 10 to 99 nM.
`Cn1c(C(=O)NC2CCCc3cc(-c4ncnc5[nH]ncc45)ccc32)nc2ccccc21` (stereo not shown) [Example I-101, N-(6-(1H-pyrazolo[3,4-d]pyrimidin-4-yl)-1,2,3,4-tetrahydronaphthalen-1-yl)-1-methyl-1H-benzo[d]imidazole-2-carboxamide] showed an IC50 of 100 to 999 nM.
`CC(C)(C)c1ccc(C(=O)NCc2ccc(-c3ncnc4[nH]c(-c5ccc(C(=O)N6CCOCC6)cc5)cc34)cc2)cc1` [Example I-111, 4-(tert-butyl)-N-(4-(6-(4-(morpholine-4-carbonyl)phenyl)-7H-pyrrolo[2,3-d]pyrimidin-4-yl)benzyl)benzamide] was tested, and the IC50 was less than 10 nM.
`Cc1cc(-c2ncnc3nc(N4CCC(C(=O)O)C4)[nH]c23)ccc1CNC(=O)c1cnc(C(C)(C)C)s1` (stereo not shown) [Example I-51, 1-(6-(4-((2-(tert-butyl)thiazole-5-carboxamido)methyl)-3-methylphenyl)-7H-purin-8-yl)pyrrolidine-3-carboxylic acid] showed an IC50 of less than 10 nM.
Work on `Cc1cc(-c2ncnc3[nH]c(-c4cnn5c4CN(C)CC5)cc23)ccc1CNC(=O)c1cnc(C(C)(C)C)s1` [Example I-102, 2-(tert-butyl)-N-(2-methyl-4-(6-(5-methyl-4,5,6,7-tetrahydropyrazolo[1,5-a]pyrazin-3-yl)-7H-pyrrolo[2,3-d]pyrimidin-4-yl)benzyl)thiazole-5-carboxamide] yielded an IC50 of less than 10 nM.
Molecule `Cc1cc(-c2ncnc3cc(C4CCS(=O)(=O)CC4)n(C)c23)ccc1CNC(=O)c1cnc(C(C)(C)C)s1` [Example I-24, 2-(tert-butyl)-N-(4-(6-(1,1-dioxidotetrahydro-2H-thiopyran-4-yl)-5-methyl-5H-pyrrolo[3,2-d]pyrimidin-4-yl)-2-methylbenzyl)thiazole-5-carboxamide] has an IC50 of 10 to 99 nM.
In the case of `CC(C)(C)c1ccc(C(=O)NCc2cc(F)c(-c3ncnc4[nH]ccc34)cc2Cl)nc1` [Example I-13, 5-(tert-butyl)-N-(2-chloro-5-fluoro-4-(7H-pyrrolo[2,3-d]pyrimidin-4-yl)benzyl)picolinamide], the IC50 is reported as 10 to 99 nM.
Molecule `CC(C)(C)c1ccc(C(=O)NCc2ccc(-c3ncnc4[nH]ccc34)cn2)nc1` [Example I-70] has an IC50 of 100 to 999 nM.
`O=C(NC1CCCc2cc(-c3ncnc4[nH]ncc34)ccc21)c1ccc(C(F)(F)F)c(Cl)c1` (stereo not shown) [Example I-92, N-(6-(1H-pyrazolo[3,4-d]pyrimidin-4-yl)-1,2,3,4-tetrahydronaphthalen-1-yl)-3-chloro-4-(trifluoromethyl)benzamide] showed an IC50 of 100 to 999 nM.
`CC(C)(C)c1ccc(C(=O)NCc2ccc(-c3ncnc4[nH]ccc34)cc2C#N)nc1` [Example I-6, 5-(tert-butyl)-N-(2-cyano-4-(7H-pyrrolo[2,3-d]pyrimidin-4-yl)benzyl)picolinamide] showed an IC50 of 10 to 99 nM.
`O=C(NC1CCCc2cc(-c3ncnc4[nH]ncc34)ccc21)c1ccc(C(F)(F)F)cc1` (stereo not shown) [Example I-97, N-(6-(1H-pyrazolo[3,4-d]pyrimidin-4-yl)-1,2,3,4-tetrahydronaphthalen-1-yl)-4-(trifluoromethyl)benzamide] was tested, and the IC50 was 10 to 99 nM.
`Cn1cc(-c2cc3c(-c4ccc5c(c4)CCCCC5NC(=O)c4cnn(C(C)(C)C)c4)ncnc3[nH]2)cn1` (stereo not shown) [Example I-160, 1-(tert-butyl)-N-(2-(6-(1-methyl-1H-pyrazol-4-yl)-7H-pyrrolo[2,3-d]pyrimidin-4-yl)-6,7,8,9-tetrahydro-5H-benzo[7]annulen-5-yl)-1H-pyrazole-4-carboxamide] was tested, and the IC50 was less than 10 nM.
With `CC(NC(=O)c1cc2c(s1)CCCC2)c1ccc(-c2ncnc3[nH]ccc23)cc1C(F)(F)F` (stereo not shown) [Example I-80, N-(1-(4-(7H-pyrrolo[2,3-d]pyrimidin-4-yl)-2-(trifluoromethyl)phenyl)ethyl)-4,5,6,7-tetrahydrobenzo[b]thiophene-2-carboxamide] the IC50 was 10 to 99 nM.
`O=C(NCc1ccc(-c2ncnc3[nH]ccc23)cc1)c1cc(C(F)(F)F)c(Cl)cn1` [Example I-63, N-(4-(7H-pyrrolo[2,3-d]pyrimidin-4-yl)benzyl)-5-chloro-4-(trifluoromethyl)picolinamide] gave an IC50 of 1000 to 10000 nM.
Molecule `O=C(NCc1ncc(-c2ccnc3[nH]ncc23)cc1F)c1cc2c(s1)CCCC2` [Example I-110, N-((3-fluoro-5-(1H-pyrazolo[3,4-b]pyridin-4-yl)pyridin-2-yl)methyl)-4,5,6,7-tetrahydrobenzo[b]thiophene-2-carboxamide] has an IC50 of 10 to 99 nM.
Work on `Cc1cc(-c2ncnc3c2cc(-c2cn(C)nc2C)n3C)ccc1CNC(=O)c1cnc(C(C)(C)C)s1` [Example I-28, 2-(tert-butyl)-N-(4-(6-(1,3-dimethyl-1H-pyrazol-4-yl)-7-methyl-7H-pyrrolo[2,3-d]pyrimidin-4-yl)-2-methylbenzyl)thiazole-5-carboxamide] yielded an IC50 of 10 to 99 nM.
With `CC(C)(C)c1ncc(C(=O)NC2CCCc3cc(-c4ncnc5cc[nH]c45)ccc32)s1` (stereo not shown) [Example I-129, N-(6-(5H-pyrrolo[3,2-d]pyrimidin-4-yl)-1,2,3,4-tetrahydronaphthalen-1-yl)-2-(tert-butyl)thiazole-5-carboxamide] the IC50 was 10 to 99 nM.
For `O=C(NC1CCCc2cc(-c3ncnc4[nH]ncc34)ccc21)c1ccc(Cl)c(Cl)c1` (stereo not shown) [Example I-93, N-(6-(1H-pyrazolo[3,4-d]pyrimidin-4-yl)-1,2,3,4-tetrahydronaphthalen-1-yl)-3,4-dichlorobenzamide], the IC50 was 10 to 99 nM.
In the case of `CC(C)(C)c1ncc(C(=O)N[C@H]2CCCc3cc(-c4ccnc5[nH]ncc45)cnc32)s1` [Example I-152, (S)—N-(3-(1H-pyrazolo[3,4-b]pyridin-4-yl)-5,6,7,8-tetrahydroquinolin-8-yl)-2-(tert-butyl)thiazole-5-carboxamide], the IC50 is reported as 1000 to 10000 nM.
For `Cc1cc(-c2ncnc3[nH]ncc23)ccc1C(C)NC(=O)c1cc2c(s1)CCCC2` (stereo not shown) [Example I-121, N-(1-(2-methyl-4-(1H-pyrazolo[3,4-d]pyrimidin-4-yl)phenyl)ethyl)-4,5,6,7-tetrahydrobenzo[b]thiophene-2-carboxamide], the IC50 was less than 10 nM.
For `Cn1cc(-c2cc3c(-c4ccc5c(c4)CCCCC5NC(=O)c4cnc(C(C)(C)C)s4)ncnc3[nH]2)cn1` (stereo not shown) [Example I-161, 2-(tert-butyl)-N-(2-(6-(1-methyl-1H-pyrazol-4-yl)-7H-pyrrolo[2,3-d]pyrimidin-4-yl)-6,7,8,9-tetrahydro-5H-benzo[7]annulen-5-yl)thiazole-5-carboxamide], the IC50 was less than 10 nM.
In the case of `O=C(N[C@@H]1CCCc2cc(-c3ncnc4[nH]ncc34)ccc21)[C@H]1CC[C@H](C(F)(F)F)CC1` [Example I-105, trans-N—((R)-6-(1H-pyrazolo[3,4-d]pyrimidin-4-yl)-1,2,3,4-tetrahydronaphthalen-1-yl)-4-(trifluoromethyl)cyclohexanecarboxamide], the IC50 is reported as 100 to 999 nM.
`CC(C)(C)c1ccc(C(=O)NC2COCc3cc(-c4ncnc5[nH]ccc45)ccc32)nc1` (stereo not shown) [Example I-82, N-(7-(7H-pyrrolo[2,3-d]pyrimidin-4-yl)isochroman-4-yl)-5-(tert-butyl)picolinamide] was tested, and the IC50 was 100 to 999 nM.
In the case of `Cc1cc(-c2ncnc3nc(N4CCCC4C(=O)O)[nH]c23)ccc1CNC(=O)c1cnc(C(C)(C)C)s1` (stereo not shown) [Example I-55, 1-(6-(4-((2-(tert-butyl)thiazole-5-carboxamido)methyl)-3-methylphenyl)-7H-purin-8-yl)pyrrolidine-2-carboxylic acid], the IC50 is reported as 10 to 99 nM.
Molecule `CC(C)(C)c1ccc(C(=O)NC2CCc3cc(-c4ncnc5[nH]ccc45)ccc32)cc1` (stereo not shown) [Example I-154, N-(5-(7H-pyrrolo[2,3-d]pyrimidin-4-yl)-2,3-dihydro-1H-inden-1-yl)-4-(tert-butyl)benzamide] has an IC50 greater than 10000 nM.
Molecule `Cc1c(-c2ncnc3[nH]ccc23)ccc2c1CCCC2NC(=O)c1ccc(C(C)(C)C)cc1` (stereo not shown) [Compound I-155] has an IC50 of 1000 to 10000 nM.
Molecule `CC(NC(=O)c1cnc(C(C)(C)C)s1)c1ccc(-c2ncnc3cc(-c4cnn(C)c4)[nH]c23)cc1` (stereo not shown) [Example I-114, 2-(tert-butyl)-N-(1-(4.-(6-(1-methyl-1H-pyrazol-4-yl)-5H-pyrrolo[3,2-d]pyrimidin-4-yl)phenyl)ethyl)thiazole-5-carboxamide] has an IC50 of less than 10 nM.
